Results taken from ChEMBL document CHEMBL5050846 (2020).
The source made the active and inactive calls. The calls are words filed in the database; no cut-off is given here.

Key:
[1] = Cmax in rat; assay type: ADME; details: in vivo
[2] = Half-life in rat; assay type: ADME; details: in vivo
[3] = Tmax in rat; assay type: ADME; details: in vivo
[4] = AUClast in rat; assay type: ADME; set-up: time 0 - last; details: in vivo
[5] = Brain to plasma ratio in rat; assay type: ADME; details: read-out: BPR
Rattus norvegicus [6] = assay: Protection against harmaline-induced tremor in rats at 10 mg/kg; assay type: functional, organism-based
Rattus norvegicus [7] = assay type: functional, organism-based; details: dose 100.0 mg/kg
Rattus norvegicus [8] = assay: Effect on neurobehavioral function in female rats assessed as increase in foot splay width at 15 mg/kg, po administered a single dose; assay type: toxicity, organism-based; details: in vivo
[9] = Toxicity in female Sprague-Dawley rats at 10 to 1000 mg/kg, po assessed as effect on fertility; assay type: organism-based; details: rat, in vivo, dose 10-1000 mg/kg
Rattus norvegicus [10] = assay: Effect on respiratory function in male rats assessed as change in airway resistance at 6 mg/kg, iv; assay type: toxicity, organism-based; details: in vivo
CYP3A5 = CYP3A5 (Homo sapiens, UniProt P20815); assay: Inhibition of recombinant human CYP3A5 in human liver microsomes at 1 uM relative to control; assay type: ADME
CYP3A5, sequence (P20815 whole entry): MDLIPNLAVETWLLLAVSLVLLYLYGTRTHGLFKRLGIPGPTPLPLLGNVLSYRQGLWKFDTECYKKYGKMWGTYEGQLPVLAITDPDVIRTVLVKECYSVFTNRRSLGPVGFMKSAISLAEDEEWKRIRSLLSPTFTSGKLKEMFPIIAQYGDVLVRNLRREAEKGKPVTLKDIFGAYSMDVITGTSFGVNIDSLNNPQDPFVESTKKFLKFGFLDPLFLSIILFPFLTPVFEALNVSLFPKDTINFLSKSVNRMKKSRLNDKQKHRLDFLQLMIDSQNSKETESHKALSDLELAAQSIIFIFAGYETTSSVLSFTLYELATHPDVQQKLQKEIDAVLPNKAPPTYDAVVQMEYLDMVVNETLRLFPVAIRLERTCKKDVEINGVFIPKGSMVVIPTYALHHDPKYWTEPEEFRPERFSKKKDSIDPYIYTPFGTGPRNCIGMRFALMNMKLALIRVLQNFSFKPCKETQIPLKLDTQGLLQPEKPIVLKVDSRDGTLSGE

Canis familiaris [11] = assay: Effect on QRS duration of heart in dogs at 2 to 300 mg/kg, iv; assay type: toxicity, organism-based, Canis lupus familiaris; details: dog, in vivo, dose 2-300 mg/kg
Rattus norvegicus [12] = species on record: Rattus norvegicus; assay: Effect on sleep architecture of rats assessed as increase in rapid eye movement sleep late in sleep period; assay type: functional, organism-based
Canis familiaris [13] = assay: Effect on QTc interval of heart in dogs at 2 to 300 mg/kg, iv; assay type: toxicity, organism-based, Canis lupus familiaris; details: dog, in vivo, dose 2-300 mg/kg
[14] = Toxicity in Sprague-Dawley rats at 30 to 1000 mg/kg, po assessed as developmental toxicity; assay type: organism-based; details: rat, in vivo, dose 30-1000 mg/kg
[15] = Toxicity in rabbits at 30 to 1000 mg/kg, po assessed as maternal toxicity; assay type: organism-based, Oryctolagus cuniculus; details: rabbit, in vivo, 672 h, dose 30-1000 mg/kg, time 4 weeks
Rattus norvegicus [16] = assay: Protection against amphetamine-induced psycho-motor activity in rat at 1 to 10 mg/kg, po; assay type: functional, organism-based; details: dose 1-10 mg/kg
Rattus norvegicus [17] = assay: Effect on neurobehavioral function in female rats at 30 mg/kg, po administered a single dose at 24 hrs; assay type: toxicity, organism-based; details: in vivo
[18] = target: T1, pregnane X receptor (PXR, NR1I2) (Homo sapiens, UniProt O75469); assay: Activation of human pregnane X receptor at 10 uM relative to control; details: read-out: Activity
T1 sequence (O75469 whole entry): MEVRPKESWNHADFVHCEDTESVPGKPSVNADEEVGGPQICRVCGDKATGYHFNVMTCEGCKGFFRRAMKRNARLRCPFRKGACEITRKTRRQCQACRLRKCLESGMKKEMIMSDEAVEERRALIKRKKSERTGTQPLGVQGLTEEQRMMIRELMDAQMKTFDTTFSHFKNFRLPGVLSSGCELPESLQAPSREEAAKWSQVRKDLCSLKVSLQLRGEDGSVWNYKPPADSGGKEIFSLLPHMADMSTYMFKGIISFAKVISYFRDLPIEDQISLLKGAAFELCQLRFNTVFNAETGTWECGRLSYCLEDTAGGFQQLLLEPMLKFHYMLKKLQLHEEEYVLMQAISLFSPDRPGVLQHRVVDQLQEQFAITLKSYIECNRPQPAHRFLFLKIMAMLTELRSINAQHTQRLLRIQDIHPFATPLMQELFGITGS

[19] = Brain concentration in male rats at 25 mg/kg, po at 2 hrs using 90% PEG400; assay type: ADME, organism-based; details: rat, read-out: Drug uptake
[20] = Toxicity in Sprague-Dawley rats at 30 to 2000 mg/kg, po assessed as micronuclei induction in bone marrow; assay type: organism-based; details: rat, in vivo, dose 30-2000 mg/kg
Canis familiaris [21] = assay: Effect on QRS duration of heart in dogs at 10 mg/kg, iv; assay type: toxicity, organism-based, Canis lupus familiaris; details: dog, in vivo
[22] = Plasma concentration in male rats at 25 mg/kg, po at 2 hrs using 90% PEG400; assay type: ADME, organism-based; details: rat
[23] = Oral bioavailability in dog at 0.5 mg/kg; assay type: ADME, organism-based, Canis lupus familiaris; details: in vivo
[24] = Induction of CYP3A4 mRNA production in primary human hepatocytes at 10 uM relative to control; assay type: functional, Hepatocyte
[25] = Half-life in dog at 0.5 mg/kg, po; assay type: ADME, organism-based, Canis lupus familiaris; details: in vivo
Rattus norvegicus [26] = assay type: functional, organism-based; details: dose 3-30 mg/kg
[27] = Toxicity in Beagle dogs at 3 to 300 mg/kg, po measured by 10-day extrapolatory dose-range finding study; assay type: organism-based, Canis lupus familiaris; details: dog, in vivo, 240 h, dose 3-300 mg/kg
Canis familiaris [28] = assay: Effect on heart rate in dogs at 10 mg/kg, iv; assay type: toxicity, organism-based, Canis lupus familiaris; details: dog, in vivo
Rattus norvegicus [29] = species on record: Rattus norvegicus; assay: Effect on sleep architecture of rats assessed as decrease in rapid eye movement sleep early in sleep period; assay type: functional, organism-based
Rattus norvegicus [30] = assay: Effect on neurobehavioral function in female rats at 30 to 3000 mg/kg, po; assay type: toxicity, organism-based; details: in vivo, dose 30-3000 mg/kg
[31] = Toxicity in Sprague-Dawley rats at 30 to 1000 mg/kg, po assessed as maternal toxicity; assay type: organism-based; details: rat, in vivo, dose 30-1000 mg/kg
Hepatocyte = assay: Induction of […] mRNA production in primary human hepatocytes at 10 uM relative to control; assay type: functional, cell-based
Rattus norvegicus [32] = assay: Effect on respiratory function in female rats assessed as increase in PenH at 30 mg/kg, po; assay type: toxicity, organism-based; details: in vivo
[33] = Brain concentration in male rats at 25 mg/kg, po at 2 hrs using 1% methylcellulose; assay type: ADME, organism-based; details: rat, read-out: Drug uptake
Canis familiaris [34] = assay: Effect on PR interval of heart in dogs at 2 to 300 mg/kg, iv; assay type: toxicity, organism-based, Canis lupus familiaris; details: dog, in vivo, dose 2-300 mg/kg
Rattus norvegicus [35] = assay: Effect on neurobehavioral function in female rats at 30 mg/kg, po administered a single dose at 2 hrs; assay type: toxicity, organism-based; details: in vivo
Rattus norvegicus [36] = assay type: functional, organism-based; details: dose 10.0 mg/kg
Canis familiaris [37] = assay: Effect on blood pressure in dogs at 2 to 300 mg/kg, iv; assay type: toxicity, organism-based, Canis lupus familiaris; details: dog, in vivo, dose 2-300 mg/kg
[38] = Toxicity in female Sprague-Dawley rats at 10 to 1000 mg/kg, po; assay type: organism-based; details: rat, in vivo, dose 10-1000 mg/kg
[39] = Clearance in dog at 0.5 mg/kg, po; assay type: ADME, organism-based, Canis lupus familiaris; details: in vivo
CYP3A4 = CYP3A4 (Homo sapiens, UniProt P08684); assay: Inhibition of recombinant human CYP3A4 in human liver microsomes at 1 uM relative to control; assay type: ADME
CYP3A4, sequence (P08684 whole entry): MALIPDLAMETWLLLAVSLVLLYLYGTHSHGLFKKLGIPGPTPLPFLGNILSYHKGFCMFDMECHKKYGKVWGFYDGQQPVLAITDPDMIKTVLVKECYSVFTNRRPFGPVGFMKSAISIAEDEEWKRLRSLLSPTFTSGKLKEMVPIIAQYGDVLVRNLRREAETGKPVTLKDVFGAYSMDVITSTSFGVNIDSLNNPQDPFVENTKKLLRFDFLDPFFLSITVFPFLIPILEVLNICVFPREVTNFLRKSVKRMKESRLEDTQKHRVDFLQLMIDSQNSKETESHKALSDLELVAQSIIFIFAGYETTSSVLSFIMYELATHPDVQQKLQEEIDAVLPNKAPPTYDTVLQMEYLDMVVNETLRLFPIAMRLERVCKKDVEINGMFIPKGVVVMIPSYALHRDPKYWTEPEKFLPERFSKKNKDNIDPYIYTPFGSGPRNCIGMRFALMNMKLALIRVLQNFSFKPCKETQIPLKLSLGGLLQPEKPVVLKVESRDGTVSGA

[40] = Plasma concentration in male rats at 25 mg/kg, po at 2 hrs using 1% methylcellulose; assay type: ADME, organism-based; details: rat
Canis familiaris [41] = assay: Effect on core body temperature in dogs at 2 to 300 mg/kg, iv; assay type: toxicity, organism-based, Canis lupus familiaris; details: dog, in vivo, dose 2-300 mg/kg
[42] = Toxicity in rats at 10 to 1000 mg/kg, po assessed as developmental toxicity; assay type: organism-based; details: rat, in vivo, dose 10-1000 mg/kg
Canis familiaris [43] = assay: Effect on QTc interval of heart in dogs at 10 mg/kg, iv; assay type: toxicity, organism-based, Canis lupus familiaris; details: dog, in vivo
Rattus norvegicus [44] = assay: Effect on respiratory function in female rats assessed as increase in PenH at 300 to 2000 mg/kg, po; assay type: toxicity, organism-based; details: in vivo, dose 300-2000 mg/kg
Rattus norvegicus [45] = species on record: Rattus norvegicus; assay: Effect on sleep architecture of rats assessed as increase in slow wave sleep; assay type: functional, organism-based
[46] = Toxicity in rabbits at 30 to 1000 mg/kg, po assessed as developmental toxicity; assay type: organism-based, Oryctolagus cuniculus; details: rabbit, in vivo, dose 30-1000 mg/kg

C[C@@H](NC(=O)Cc1ccc(C2CC2)cc1)c1ccc(OCC(F)(F)F)cn1
Cmax [1]: 7.5 µM | half-life [2]: 1.5 h | Tmax [3]: 0.3 h | AUC(0-t) [4]: 30 µM·h | Kp [5]: 0.27

CC1(C)C[C@@H](CN2CCC(F)(CNC(=O)c3cc(Cl)cc(Cl)c3)CC2)CCO1
Activity (Rattus norvegicus [6]): Active

CCC1(C)CC(=O)NC1=O (configuration not stated)
Activity (Rattus norvegicus [7]): Active

CC(C)c1ccc(CC(=O)N[C@H](C)c2ccc(OCC(F)(F)F)cn2)cc1 [SUVECALTAMIDE]
Activity (Rattus norvegicus [8]): Toxic | NOAEL [9]: ≥ 1000 mg/kg/day | Activity (Rattus norvegicus [10]): Non-Toxic | inhibition at 1 µM (CYP3A5): > 80% | Activity (Canis familiaris [11]): Non-Toxic | Activity (Rattus norvegicus [12]): Active | Activity (Canis familiaris [13]): Non-Toxic | Activity [14]: Toxic | Activity [15]: Toxic | Activity (Rattus norvegicus [16]): Active | Activity (Rattus norvegicus [17]): Non-Toxic | activity at 10 µM [18]: ≤ 34% | concentration at 2 h [19]: 1.8 µM | Activity [20]: Non-Toxic | Activity (Canis familiaris [21]): Non-Toxic | concentration at 2 h [22]: 3.3 µM | bioavailability [23]: 47% | Activity [24]: <=10% | t1/2 [25]: 3.1 h | Activity (Rattus norvegicus [26]): Active | Activity [27]: Non-Toxic | Activity (Canis familiaris [28]): Non-Toxic | Activity (Rattus norvegicus [29]): Active | Activity (Rattus norvegicus [30]): Non-Toxic | Activity [31]: Toxic | Activity (Hepatocyte): Active | Activity (Rattus norvegicus [32]): Non-Toxic | concentration at 2 h [33]: 3.1 µM | Activity (Canis familiaris [34]): Non-Toxic | Activity (Rattus norvegicus [35]): Non-Toxic | Activity (Rattus norvegicus [36]): Active | Activity (Canis familiaris [37]): Non-Toxic | NOAEL [38]: 100 mg/kg/day | CL/F [39]: 0.4 mL/min/kg | inhibition at 1 µM (CYP3A4): > 80% | concentration at 2 h [40]: 6.3 µM | Activity (Canis familiaris [41]): Non-Toxic | Activity [42]: Non-Toxic | Activity (Canis familiaris [43]): Non-Toxic | Activity (Rattus norvegicus [44]): Non-Toxic | Activity (Rattus norvegicus [45]): Active | Activity [46]: Toxic

N#Cc1ccc([C@@]2(C3CC3)c3cc(Cl)ccc3NC(=O)N2CC(F)(F)F)cc1
Cmax [1]: 3 µM | half-life [2]: 5.9 h | Kp [5]: 1.1
